The experiment has as its system M. mycetomatis genome strain MM55. In words: CLSI M38-A2 based in vitro susceptibility screening (XTT or resazurin), growth at fixed concentration. The note with it: Madurella mycetomatis; for Percent fungal survival at 100 µM: read-out: Percentage survival at 100um, 100 uM A (second replicate column). It counts as cell-based, Madurella mycetomatis.
Where [1] appears, read: mean of three, M. mycetomatis MM55, read-out: Percentage survival at 25um, 25 uM mean.
Setting [2] is: replicate A, M. mycetomatis MM55, read-out: Percentage survival at 25um, 25 um A.
Setting [3] is: replicate B, M. mycetomatis MM55, read-out: Percentage survival at 25um, 25 uM B.
Where [4] appears, read: replicate C, M. mycetomatis MM55, read-out: Percentage survival at 25um, 25 uM C.
[5] abbreviates: mean of three, M. mycetomatis MM55, read-out: Percentage survival at 100um, 100 uM mean.
Where [6] appears, read: replicate 1, M. mycetomatis MM55, read-out: Percentage survival at 100um, 100 uM A (first replicate column).
[7] abbreviates: replicate 2, M. mycetomatis MM55.
Where [8] appears, read: replicate 3, M. mycetomatis MM55, read-out: Percentage survival at 100um, 100 uM A (third replicate column).
Setting [9] is: mean of three replicates, read-out: Percentage survival at 25um, 25 uM mean.
Setting [10] is: replicate A, read-out: Percentage survival at 25um, 25 um A.
Setting [11] is: replicate B, read-out: Percentage survival at 25um, 25 uM B.
The mark [12] stands for this setting: replicate C, read-out: Percentage survival at 25um, 25 uM C.
Setting [13] is: mean of three replicates, read-out: Percentage survival at 100um, 100 uM mean.
Setting [14] is: replicate 1, read-out: Percentage survival at 100um, 100 uM A (first replicate column).
[15] abbreviates: replicate 3, read-out: Percentage survival at 100um, 100 uM A (third replicate column).
The mark [16] stands for this setting: mean of replicates, read-out: Percentage survival at 25um, 25 uM mean.
The mark [17] stands for this setting: mean of replicates, read-out: Percentage survival at 100um, 100 uM mean.
[18] abbreviates: replicate 1, read-out: Percentage survival at 100um, 100 uM A.
Setting [19] is: replicate 2, read-out: Percentage survival at 100um, 100 uM A.
Where [20] appears, read: replicate 3, read-out: Percentage survival at 100um, 100 uM A.
The mark [21] stands for this setting: first replicate column, read-out: Percentage survival at 100um, 100 uM A.
Where [22] appears, read: second replicate column, read-out: Percentage survival at 100um, 100 uM A.
The mark [23] stands for this setting: third replicate column, read-out: Percentage survival at 100um, 100 uM A.
[24] abbreviates: mean of replicates, MM55, read-out: Percentage survival at 25um, 25 uM mean.
Where [25] appears, read: replicate A, MM55, read-out: Percentage survival at 25um, 25 um A.
The mark [26] stands for this setting: replicate B, MM55, read-out: Percentage survival at 25um, 25 uM B.
Setting [27] is: replicate C, MM55, read-out: Percentage survival at 25um, 25 uM C.
Where [28] appears, read: mean of replicates, MM55, read-out: Percentage survival at 100um, 100 uM mean.
Where [29] appears, read: replicate 1, MM55, read-out: Percentage survival at 100um, 100 uM A.
Setting [30] is: replicate 2, MM55, read-out: Percentage survival at 100um, 100 uM A.
The mark [31] stands for this setting: replicate 3, MM55, read-out: Percentage survival at 100um, 100 uM A.

Where two headings read alike, the source gives them in different places.

On to `CCc1nc(N)nc(N)c1C#CC(C)c1cc(OC)cc(-c2ccncc2)c1` (centres unmarked) [MMV1580844], for which the activity at 25 µM came out at 31.6% under setting [1], 86.9% under setting [2], 5.16% under setting [3] and 2.83% under setting [4]. Moreover, the activity at 100 µM was -1.56% under setting [5], -1.7% under setting [6] and -1.98% under setting [8]. Further, the Percent fungal survival at 100 µM under setting [7] is -1.01%.
`Cc1c(OCC(F)(F)F)ccnc1C[S+]([O-])c1nc2ccccc2[nH]1` (centres unmarked) [MMV001438]: the activity at 25 µM reads like this: under setting [9], 95.7%; under setting [10], 79.3%; under setting [11], 123%; under setting [12], 84.8%. The activity at 100 µM is, setting by setting: under setting [13], 55.3%; under setting [14], 41.9%; under setting [15], 71.8%. Where the note is “replicate 2”, the Percent fungal survival at 100 µM was 52.1%.
As for `CCc1cc(Cc2cnc(N)nc2N)cc2c1N(C)CCC2C` (centres unmarked) [MMV1582490], the activity at 25 µM is, setting by setting: under setting [16], 67.6%; under setting [10], 71.5%; under setting [11], 64.7%; under setting [12], 66.5%. In addition, the activity at 100 µM runs as follows: under setting [17], 69.5%; under setting [18], 63.4%; under setting [19], 83.5%; under setting [20], 61.6%.
As for `CC(C)(C)c1ccc(Oc2ccc(N)cc2)cc1` [MMV1174026], the activity at 25 µM worked out at 74% under setting [9], 108% under setting [10], 51.8% under setting [11] and 62.2% under setting [12]. The activity at 100 µM under setting [21] is -4.12%, the activity at 100 µM under setting [13] worked out at 2.41%, the activity at 100 µM under setting [22] came out at 6.23% and the activity at 100 µM under setting [23] is 5.13%.
`Nc1nnc(-c2ccc(Cl)cc2)s1` [MMV046261]: the activity at 25 µM was found to be 82.4% under setting [16], 77.9% under setting [10], 83% under setting [11] and 86.2% under setting [12]. Also, the activity at 100 µM reads like this: under setting [17], 69.4%; under setting [18], 62.5%; under setting [19], 72.1%; under setting [20], 73.6%.
Turning to `O=C(Nc1ccccc1)N(Cc1cc(Br)ccc1O)c1ccc(F)cc1` [MMV1581552], the activity at 25 µM is, setting by setting: under setting [1], 51.3%; under setting [2], 32.5%; under setting [3], 58.2%; under setting [4], 63.3%. Besides, the activity at 100 µM reads like this: under setting [5], 11.5%; under setting [6], 1.56%; under setting [8], 24.3%. Moreover, the Percent fungal survival at 100 µM under setting [7] was found to be 8.53%.
For the molecule `Cc1cccc(C)c1C(=O)Nc1nc(-c2ccccn2)cc2ccccc12` [MMV1581558], the activity at 25 µM stood at 77.1% under setting [9], 65% under setting [10], 114% under setting [11] and 52.4% under setting [12]. For the same molecule, the activity at 100 µM came out at 86% under setting [13], 76.1% under setting [14] and 118% under setting [15]. In addition, the Percent fungal survival at 100 µM (replicate 2) came to 64.3%.
Turning to `Cc1[nH]c2ccccc2c1CC(=O)N[C@@H](Cc1ccccc1)C(=O)N(C)c1ccccc1` [MMV1580798], the activity at 25 µM runs as follows: under setting [9], 85.4%; under setting [10], 85.6%; under setting [11], 92.9%; under setting [12], 77.6%. Besides, the activity at 100 µM runs as follows: under setting [21], 87.3%; under setting [13], 82.4%; under setting [22], 79.6%; under setting [23], 80.5%.
For the molecule `O=C(O)c1cc(-c2ccc(Br)cc2)nc2ccc(Cl)cc12` [MMV247764], the activity at 25 µM under setting [24] is 73.4%, the activity at 25 µM under setting [25] was determined as 82.6%, the activity at 25 µM under setting [26] came to 78.8% and the activity at 25 µM under setting [27] turned out to be 58.9%. Besides, the activity at 100 µM under setting [28] was determined as 54.4%, the activity at 100 µM under setting [29] was found to be 60.9%, the activity at 100 µM under setting [30] is 52.4% and the activity at 100 µM under setting [31] worked out at 49.8%.
On to `O=C(Nc1ccc(N2CCN(C(=O)c3ccccc3)CC2)cc1)c1ccc2c(c1)OCO2` [MMV1580505], for which the activity at 25 µM amounted to 104% under setting [24], 103% under setting [25], 109% under setting [26] and 101% under setting [27]. Further, the activity at 100 µM under setting [28] came to 96.7%, the activity at 100 µM under setting [29] worked out at 102%, the activity at 100 µM under setting [30] stood at 96.8% and the activity at 100 µM under setting [31] was 91.4%.
`NC(=O)C(c1ccccc1)(c1ccccc1)[C@H]1CCCN(CCc2ccc3c(c2)CCO3)C1` [MMV1782412]: the activity at 25 µM was determined as 101% under setting [24], 130% under setting [25], 101% under setting [26] and 70.7% under setting [27]. Besides, the activity at 100 µM was found to be 68.7% under setting [28], 67.1% under setting [29], 68% under setting [30] and 71% under setting [31].
For the molecule `O=C(/C=C/n1cnc(-c2cc(C(F)(F)F)cc(C(F)(F)F)c2)n1)NNc1cnccn1` [MMV1593517], the activity at 25 µM by setting is: under setting [9], 90.4%; under setting [10], 63%; under setting [11], 118%; under setting [12], 90.3%. Besides, the activity at 100 µM by setting is: under setting [21], 102%; under setting [13], 102%; under setting [22], 111%; under setting [23], 95%.
Take `Clc1cc2nc(C3CCNCC3)n(Cc3ccc(CNCCc4cnc[nH]4)cc3)c2cc1Cl` [MMV1580842]: the activity at 25 µM under setting [1] is 86.1%, the activity at 25 µM under setting [2] was 92.3%, the activity at 25 µM under setting [3] came to 94.9% and the activity at 25 µM under setting [4] worked out at 71.1%. Besides, the activity at 100 µM reads like this: under setting [5], 66.3%; under setting [6], 60.7%; under setting [8], 64.1%. For the same molecule, the Percent fungal survival at 100 µM under setting [7] is 74.3%.
On to `O=C(CP(=O)(O)O)NCCc1cccc(Oc2ccccc2)c1` [MMV1579787], for which the activity at 25 µM is, setting by setting: (mean, read-out: Percentage survival at 25um, 25 uM mean) 79.8%; under setting [10], 84.6%; under setting [11], 81.7%; under setting [12], 73.2%. For the same molecule, the activity at 100 µM by setting is: (mean, read-out: Percentage survival at 100um, 100 uM mean) 46.3%; (replicate (first column), read-out: Percentage survival at 100um, 100 uM A) -0.0188%; (replicate (second column), read-out: Percentage survival at 100um, 100 uM A) 65.7%; (replicate (third column), read-out: Percentage survival at 100um, 100 uM A) 73.3%.
As to `CCc1nc2ccc(Cl)cn2c1C(=O)NCc1ccc(N2CCC(c3ccc(OC(F)(F)F)cc3)CC2)cc1` [MMV687696], the activity at 25 µM under setting [9] was found to be 93.6%, the activity at 25 µM under setting [10] was determined as 95%, the activity at 25 µM under setting [11] turned out to be 93.8% and the activity at 25 µM under setting [12] was 91.9%. Besides, the activity at 100 µM was found to be 84.8% under setting [13], 87.8% under setting [14] and 80.3% under setting [15]. The Percent fungal survival at 100 µM (replicate 2) worked out at 86.4%.
For the molecule `CC(C)(C)c1cc(C(=O)/C(C#N)=N/Nc2cccc(Cl)c2)no1` [MMV1578571], the activity at 25 µM was 61% under setting [16], 95.6% under setting [10], 56.3% under setting [11] and 31.2% under setting [12]. Besides, the activity at 100 µM under setting [17] stood at 6.1%, the activity at 100 µM under setting [18] was 4.87%, the activity at 100 µM under setting [19] came out at 4.92% and the activity at 100 µM under setting [20] is 8.51%.

(Values after paper PMC8815882, “Screening the pandemic response box identified benzimidazole carbamates, Olorofim and ravuconazole as promising drug candidates for the treatment of eumycetoma” (PLoS Neglected Tropical Diseases, 2022).)
